# Reference: patent US20200325543A1, “DIAGNOSTIC METHOD” (TOLREMO THERAPEUTICS AG, priority 2017, published 2020)
# “And” between values parts separate entries of the source, which are not always exact repeats. Equal entries are not always repeated. Structures can show the parent of a compound that is named as a salt. Where two headings read alike, the source gives them in different places.
# Test system: SOX2
# Experiment: Screen of a library of FDA-approved drugs for SOX2 antibody staining in A375 cells treated with PLX4720 and AZD6244
# Conditions: for cor. loess: normalized and geometry-corrected (loess) signal; for norm: signal after plate normalization
# [1] = A375 cells, 5 uM test drug with 1 uM PLX4720 and 0.5 uM AZD6244, 24 h
# [2] = A375 cells, 5 uM test drug with 1 uM PLX4720 and 0.5 uM AZD6244, 24 h, raw signal (ratio of FL2 SOX2 antibody and FL3 nuclear staining), screen run in duplicate
# [3] = Z-test against negative controls (DMSO), single dose 5 uM
Structure (SMILES),cor. loess [1],raw [2],norm [1],z [3],raw,z
CCN(CC)C(=S)SSC(=S)N(CC)CC,0.5909,0.973,0.642,4.87,–,–
CC(=O)Nc1c(I)cc(I)c(C(=O)O)c1I [ACETRIAZOIC ACID],0.3537,0.9817,0.3797,4.812,–,–
CC(=O)N[C@@H](CC(C)C)C(=O)O [ACETYL-L-LEUCINE],0.5782,0.9737,0.5922,6.41,–,–
CCCCCCc1ccc(O)cc1O.Nc1c2ccccc2nc2ccccc12 [ACRISORCIN],–,0.9675 and 0.9751,0.7754 and 0.5959,4.872 and 7.943,–,–
CCCSc1ccc2nc(NC(=O)OC)[nH]c2c1 [ALBENDAZOLE],0.3977,–,0.3992,5.411,0.9811,–
CC(=O)OCC(=O)[C@@]12OC3(CCCC3)O[C@@H]1C[C@H]1[C@@H]3CCC4=CC(=O)C=C[C@]4(C)[C@@]3(F)[C@@H](O)C[C@@]12C [AMCINONIDE],0.491,0.9761,0.5647,6.68,–,–
CCN(CC)Cc1cc(Nc2ccnc3cc(Cl)ccc23)ccc1O [AMODIAQUINE DIHYDROCHLORIDE],0.9308,0.9611,1.053,7.671,–,–
C[C@H]1[C@@H](O)O[C@@H]2O[C@@]3(C)CC[C@H]4[C@H](C)CC[C@@H]1[C@@]24OO3 [ARTENIMOL],0.4829,0.978,0.4488,5.354,–,–
C[C@H]1[C@H](OC(=O)CCC(=O)O)O[C@@H]2O[C@@]3(C)CC[C@H]4[C@H](C)CC[C@@H]1[C@@]24OO3 [ARTESUNATE],0.3246,0.9835,0.3139,3.471,–,–
Nc1ncn([C@@H]2O[C@H](CO)[C@@H](O)[C@H]2O)c(=O)n1 [AZACITIDINE],0.9945,0.9651,0.9714,8.534,–,–
"S=C(NCc1ccc2c(c1)OCO2)N1CCN(c2ncnc3c2oc2ccccc23)CC1 [Amuvatinib (MP-470), Amuvatinib]",0.5191,0.9748,0.6031,4.05,–,–
CC(C)(C)CC(C)(C)c1ccc(OCCOCC[N+](C)(C)Cc2ccccc2)cc1 [BENZETHONIUM CHLORIDE],0.9288,0.9635,0.9712,7.654,–,–
O=C(Oc1cccc2cccnc12)c1ccccc1 [BENZOXIQUINE],0.5846,0.9731,0.6197,3.458,–,–
"CCC(=O)OCC(=O)[C@@]1(OC(=O)CC)[C@@H](C)C[C@H]2[C@@H]3CCC4=CC(=O)C=C[C@]4(C)[C@@]3(F)[C@@H](O)C[C@@]21C [BETAMETHASONE 17,21-DIPROPIONATE]",0.4356,0.9801,0.4336,5.927,–,–
O=[N+]([O-])C(Br)(CO)CO [BRONOPOL],0.4507,0.9779,0.4505,4.996,–,–
CCCCN1CCCCC1C(=O)Nc1c(C)cccc1C (centres unmarked) [BUPIVACAINE HYDROCHLORIDE],0.2934,0.9835,0.3196,3.991,–,–
COC(=O)[C@]12CCC(C)(C)C[C@H]1[C@H]1C(=O)C=C3[C@@]4(C)C=C(C#N)C(=O)C(C)(C)[C@@H]4CC[C@@]3(C)[C@]1(C)CC2 [Bardoxolone Methyl],1.25,0.9513,1.346,9.753,–,–
CCCCCCCCCCCCCCCC[N+](C)(C)C.[Br-] [CETRIMONIUM BROMIDE],5.014,0.8841,4.765,19.51,–,–
O=C1c2ccccc2C(=O)C1c1ccc(Cl)cc1 [CHLORINDIONE],0.3463,0.9825,0.2966,3.839,–,–
CCC(=O)O[C@]1(C(=O)CCl)[C@@H](C)C[C@H]2[C@@H]3CCC4=CC(=O)C=C[C@]4(C)[C@@]3(F)[C@@H](O)C[C@@]21C [CLOBETASOL PROPIONATE],0.4021,0.9794,0.4554,5.471,–,–

Structure (SMILES),cor. loess [1],raw [2],norm [1],z [3],raw,z
COc1cc2c(c(OC)c1OC)-c1ccc(OC)c(=O)cc1[C@@H](NC(C)=O)CC2 [COLCHICINE],0.7111,0.9693,0.7731,5.86,–,–
C[C@@H]1C[C@@H]([C@H](O)CC2CC(=O)NC(=O)C2)C(=O)[C@@H](C)C1 [CYCLOHEXIMIDE],0.6971,0.9738,0.6756,5.982,–,–
"CCS(=O)(=O)N1CCN(c2ccc(Nc3ncc(C(N)=O)c(NC4CC4)n3)cc2)CC1 [Cerdulatinib (PRT062070, PRT2070), Cerdulatinib]",0.4672,0.9741,0.6248,3.646,–,–
Nc1cc(F)ccc1NC(=O)c1ccc(CNC(=O)/C=C/c2cccnc2)cc1 [Chidamide],1.067,0.9618,1.02,7.547,–,–
CC(=O)OCC(=O)[C@@]1(O)[C@H](C)C[C@H]2[C@@H]3CCC4=CC(=O)C=C[C@]4(C)[C@@]3(F)[C@@H](O)C[C@@]21C [DEXAMETHASONE ACETATE],0.4615,0.9769,0.5088,3.803,–,–
C[C@@H]1C[C@H]2[C@@H]3CCC4=CC(=O)C=C[C@]4(C)[C@@]3(F)[C@@H](O)C[C@]2(C)[C@@]1(O)C(=O)COP(=O)(O)O [DEXAMETHASONE SODIUM PHOSPHATE],0.5299,0.9748,0.5817,4.367,–,–
CC(=O)OCC(=O)[C@@]1(O)CC[C@H]2[C@@H]3CCC4=CC(=O)C=C[C@]4(C)[C@@]3(Cl)[C@@H](Cl)C[C@@]21C [DICHLORISONE ACETATE],0.4911,0.9771,0.4765,5.445,–,–
C[C@H]1O[C@@H](O[C@H]2[C@@H](O)C[C@H](O[C@H]3[C@@H](O)C[C@H](O[C@H]4CC[C@@]5(C)[C@H](CC[C@@H]6[C@@H]5CC[C@]5(C)[C@@H](C7=CC(=O)OC7)CC[C@]65O)C4)O[C@@H]3C)O[C@@H]2C)C[C@H](O)[C@@H]1O [DIGITOXIN],1.488,0.9468,1.549,12.26,–,–
C[C@H]1O[C@@H](O[C@H]2[C@@H](O)C[C@H](O[C@H]3[C@@H](O)C[C@H](O[C@H]4CC[C@@]5(C)[C@H](CC[C@@H]6[C@@H]5C[C@@H](O)[C@]5(C)[C@@H](C7=CC(=O)OC7)CC[C@]65O)C4)O[C@@H]3C)O[C@@H]2C)C[C@H](O)[C@@H]1O [DIGOXIN],1.623,0.9433,1.668,13.38,–,–
CCCCc1oc2ccc(NS(C)(=O)=O)cc2c1C(=O)c1ccc(OCCCN(CCCC)CCCC)cc1 [DRONEDARONE HYDROCHLORIDE],3.823,0.8721,4.004,52.01,–,–
CCCC(=O)O[C@]1(C(=O)COC(C)=O)CC[C@H]2[C@@H]3C[C@H](F)C4=CC(=O)C=C[C@]4(C)[C@@]3(F)[C@@H](O)C[C@@]21C [Difluprednate],0.4529,0.9801,0.4293,4.842,–,–
CCOC(=O)COc1ccc2c(=O)cc(-c3ccccc3)oc2c1 [EFLOXATE],1.468,0.955,1.397,5.713,–,–
CC[C@H]1CN2CCc3cc(OC)c(OC)cc3[C@@H]2C[C@@H]1C[C@H]1NCCc2cc(OC)c(OC)cc21 [EMETINE DIHYDROCHLORIDE],1.429,0.9485,1.489,–,–,11.78
"Nc1ccccc1NC(=O)c1ccc(CNC(=O)OCc2cccnc2)cc1 [Entinostat (MS-275), Entinostat]",0.6933,0.9672,0.8427,5.41,–,–
"Cc1cc(C#N)cc(C)c1Oc1nc(Nc2ccc(C#N)cc2)nc(N)c1Br [Etravirine (TMC125), Etravirine]",0.646,0.9731,0.6589,6.907,–,–
COC(=O)Nc1nc2ccc(Sc3ccccc3)cc2[nH]1 [FENBENDAZOLE],0.4709,0.9808,0.4377,4.041,–,–
O=c1[nH]c(=O)n([C@H]2C[C@H](O)[C@@H](CO)O2)cc1F [FLOXURIDINE],0.3344,0.9795,0.4513,4.549,–,–
CC(=O)OCC(=O)[C@@]1(O)CC[C@H]2[C@@H]3CCC4=CC(=O)CC[C@]4(C)[C@@]3(F)[C@@H](O)C[C@@]21C [FLUDROCORTISONE ACETATE],0.4578,0.977,0.5063,3.773,–,–
C[C@@H]1C[C@H]2[C@@H]3C[C@H](F)C4=CC(=O)C=C[C@]4(C)[C@@]3(F)[C@@H](O)C[C@]2(C)[C@@]1(O)C(=O)COC(=O)C(C)(C)C [FLUMETHAZONE PIVALATE],0.4809,0.9766,0.5179,3.963,–,–
